According to DBAASP:
Values after ≈ are worked out from the molar mass of the structure shown.

Key:
Experiment in all cases: ≥ marks a high value that may be exact or a test limit, other limits are often not marked, values filed in µg/mL are converted to µM
[1] = test system: Salmonella enterica subsp. enterica serovar Typhimurium ATCC 14028
[2] = test system: Klebsiella pneumoniae ATCC 10031
[3] = test system: Staphylococcus aureus ATCC 6538
[4] = test system: Pseudomonas aeruginosa ATCC 13388
[5] = test system: Escherichia coli ATCC 11219
[6] = test system: Staphylococcus aureus KCTC 1621
[7] = test system: Trichosporon beigelii KCTC 7707
[8] = test system: Bacillus subtilis KCTC 1918
[9] = test system: Salmonella typhimurium KCTC 1926
[10] = test system: Saccharomyces cerevisiae KCTC 7296
[11] = test system: Candida albicans TIMM 1768
[12] = test system: Proteus vulgaris KCTC 2433
[13] = test system: Acinetobacter baumannii KCTC 2508
[14] = test system: Acinetobacter baumannii
[15] = test system: Staphylococcus aureus RF122
[16] = test system: Staphylococcus aureus SA113
[17] = test system: Cronobacter sakazakii DSM 4485
[18] = test system: Cronobacter muytjensii ATCC 51329
[19] = test system: Staphylococcus aureus Newman
[20] = test system: Escherichia coli NCIMB 11843
[21] = test system: Salmonella enterica subsp. enterica serovar Typhimurium LT2
[22] = test system: Pseudomonas fluorescens NCIMB 9046
[23] = test system: Klebsiella pneumoniae NCIMB 13218
[24] = test system: Cronobacter sakazakii ATCC BAA-894
[25] = test system: Cronobacter sakazakii DPC 6440
[26] = test system: Staphylococcus aureus NCTC 8325-4
[27] = test system: Staphylococcus aureus RN4220
[28] = test system: Staphylococcus epidermidis
[29] = test system: Enterococcus faecalis ATCC 29212
[30] = test system: Escherichia coli UB1005
[31] = test system: Staphylococcus aureus ATCC 25923
[32] = test system: Candida albicans
[33] = test system: Salmonella enterica serovar Typhimurium
[34] = test system: Pseudomonas aeruginosa H103

CC[C@H](C)[C@H](NC(=O)[C@H](C)N)C(=O)N[C@@H](Cc1cnc[nH]1)C(=O)N[C@@H](CC(=O)O)C(=O)N[C@H](C(=O)N[C@@H](CC(C)C)C(=O)N[C@@H](CCCCN)C(=O)N[C@@H](Cc1ccc(O)cc1)C(=O)NCC(=O)N[C@@H](CCCCN)C(=O)N1CCC[C@H]1C(=O)N[C@@H](CO)C(N)=O)[C@@H](C)CC [AIHDILKYGKPS]
MIC [1]: 3 µM (≈ 4.02 µg/mL)
MIC [2]: ≥ 50 µM
MIC [3]: 10 µM (≈ 13.4 µg/mL)
MIC [4]: 10 µM (≈ 13.4 µg/mL)
MIC [5]: ≥ 50 µM

CC[C@H](C)[C@H](NC(=O)CNC(=O)[C@H](CC(C)C)NC(=O)[C@H](CCCN=C(N)N)NC(=O)[C@H](CCCCN)NC(=O)[C@H](Cc1ccccc1)NC(=O)[C@@H](NC(=O)[C@H](CCCCN)NC(=O)[C@H](CCCCN)NC(=O)[C@H](C)N)C(C)C)C(=O)NCC(=O)N[C@@H](C)C(=O)N[C@H](C(=O)N[C@@H](CC(C)C)C(=O)N[C@@H](CCCCN)C(=O)N[C@H](C(=O)N[C@@H](CC(C)C)C(=O)N[C@H](C(=O)N[C@H](C(=O)NCC(=O)O)[C@@H](C)O)[C@@H](C)O)C(C)C)C(C)C [AKKVFKRLGIGAVLKVLTTG]
MIC [6]: 1.56 µM (≈ 3.28 µg/mL)
MIC [7]: 17.7 µM (≈ 37.1 µg/mL)
MIC [8]: 0.78 µM (≈ 1.64 µg/mL)
MIC [9]: 0.39 µM (≈ 0.819 µg/mL)
MIC [10]: 12.5 µM (≈ 26.2 µg/mL)
MIC [11]: 12.5 µM (≈ 26.2 µg/mL)
MIC [12]: 6.25 µM (≈ 13.1 µg/mL)
MIC [13]: 6.25 µM (≈ 13.1 µg/mL)
MIC [14]: 6.25 µM (≈ 13.1 µg/mL)

CC[C@H](C)[C@H](NC(=O)CNC(=O)[C@H](CC(C)C)NC(=O)[C@H](CCCN=C(N)N)NC(=O)[C@H](CCCCN)NC(=O)[C@H](Cc1ccccc1)NC(=O)[C@@H](NC(=O)[C@H](CCCCN)NC(=O)[C@H](CCCCN)NC(=O)[C@H](C)N)C(C)C)C(=O)NCC(=O)N[C@@H](C)C(=O)N[C@H](C(=O)N[C@@H](CC(C)C)C(=O)N[C@@H](Cc1c[nH]c2ccccc12)C(=O)N[C@H](C(=O)N[C@@H](CC(C)C)C(=O)N[C@H](C(=O)N[C@@H](Cc1c[nH]c2ccccc12)C(=O)NCC(=O)O)[C@@H](C)O)C(C)C)C(C)C [AKKVFKRLGIGAVLWVLTWG]
MIC [6]: 3.12 µM (≈ 7 µg/mL)
MIC [7]: ≥ 50 µM
MIC [8]: 6.25 µM (≈ 14 µg/mL)
MIC [9]: 0.78 µM (≈ 1.75 µg/mL)
MIC [10]: ≥ 50 µM
MIC [11]: ≥ 50 µM
MIC [12]: 3.12 µM (≈ 7 µg/mL)

CC[C@H](C)[C@H](NC(=O)CN)C(=O)N[C@@H](Cc1cnc[nH]1)C(=O)N[C@@H](CC(=O)O)C(=O)N[C@H](C(=O)N[C@@H](CC(C)C)C(=O)N[C@@H](CCCCN)C(=O)N[C@@H](C)C(=O)NCC(=O)N[C@@H](CCCCN)C(=O)N1CCC[C@H]1C(=O)N[C@@H](CO)C(N)=O)[C@@H](C)CC [GIHDILKAGKPS]
MIC [1]: > 50 µM
MIC [2]: 20 µM (≈ 24.7 µg/mL)
MIC [3]: 10 µM (≈ 12.3 µg/mL)
MIC [4]: ≥ 50 µM
MIC [5]: 20 µM (≈ 24.7 µg/mL)

CC[C@H](C)[C@H](NC(=O)CN)C(=O)N[C@@H](CCCN=C(N)N)C(=O)N[C@@H](CCCN=C(N)N)C(=O)N[C@H](C(=O)N[C@@H](CC(C)C)C(=O)N[C@@H](CCCN=C(N)N)C(=O)N[C@@H](Cc1ccc(O)cc1)C(=O)NCC(=O)N[C@@H](CCCN=C(N)N)C(=O)N1CCC[C@H]1C(=O)N[C@@H](CO)C(N)=O)[C@@H](C)CC [GIRRILRYGRPS]
MIC [1]: 10 µM (≈ 14.4 µg/mL)
MIC [2]: 10 µM (≈ 14.4 µg/mL)
MIC [3]: 5 µM (≈ 7.21 µg/mL)
MIC [4]: 10 µM (≈ 14.4 µg/mL)
MIC [5]: 4 µM (≈ 5.77 µg/mL)

CC[C@H](C)[C@H](N)C(=O)N[C@@H](C)C(=O)N[C@@H](C)C(=O)N[C@@H](C)C(=O)NCC(=O)N[C@@H](CC(C)C)C(=O)N1CCC[C@H]1C(=O)N[C@@H](CCC(N)=O)C(=O)N[C@@H](CCC(=O)O)C(=O)O [IAAAGLPQE]
MIC [15]: ≥ 312 µM
MIC [16]: ≥ 1250 µM
MIC [17]: ≥ 1250 µM
MIC [18]: ≥ 1250 µM
MIC [19]: ≥ 1250 µM
MIC [20]: ≥ 2500 µM
MIC [21]: ≥ 2500 µM
MIC [22]: ≥ 2500 µM
MIC [23]: ≥ 1250 µM
MIC [24]: ≥ 1250 µM
MIC [25]: ≥ 625 µM
MIC [26]: ≥ 1250 µM
MIC [27]: ≥ 312 µM

CC[C@H](C)[C@H](N)C(=O)N[C@@H](Cc1cnc[nH]1)C(=O)N[C@@H](CCC(N)=O)C(=O)NCC(=O)N[C@@H](CC(C)C)C(=O)N1CCC[C@H]1C(=O)N[C@@H](CCC(N)=O)C(=O)N[C@@H](CCC(=O)O)C(=O)O [IHQGLPQE]
MIC [15]: ≥ 1250 µM
MIC [16]: ≥ 2500 µM
MIC [17]: ≥ 2500 µM
MIC [18]: ≥ 2500 µM
MIC [19]: ≥ 2500 µM
MIC [20]: ≥ 2500 µM
MIC [21]: ≥ 2500 µM
MIC [22]: ≥ 2500 µM
MIC [23]: ≥ 2500 µM
MIC [24]: ≥ 2500 µM
MIC [25]: ≥ 2500 µM
MIC [26]: ≥ 2500 µM
MIC [27]: ≥ 1250 µM

CC[C@H](C)[C@H](N)C(=O)N[C@@H](CC(C)C)C(=O)N1CCC[C@H]1C(=O)N[C@@H](Cc1c[nH]c2ccccc12)C(=O)N[C@@H](CCCCN)C(=O)N[C@@H](Cc1c[nH]c2ccccc12)C(=O)N[C@@H](CCCN=C(N)N)C(=O)N[C@@H](Cc1c[nH]c2ccccc12)C(=O)N[C@@H](Cc1c[nH]c2ccccc12)C(=O)N[C@@H](CCCCN)C(=O)N[C@@H](Cc1c[nH]c2ccccc12)C(=O)N[C@@H](CCCN=C(N)N)C(=O)N[C@@H](CCCN=C(N)N)C(=O)O [ILPWKWRWWKWRR]
MIC [28]: 0.7 µM (≈ 1.4 µg/mL)
MIC [29]: 2.9 µM (≈ 5.79 µg/mL)
MIC [30]: 1.4 µM (≈ 2.8 µg/mL)
MIC [31]: 0.7 µM (≈ 1.4 µg/mL)
MIC [32]: 2.9 µM (≈ 5.79 µg/mL)
MIC [33]: 5.7 µM (≈ 11.4 µg/mL)
MIC [34]: 5.7 µM (≈ 11.4 µg/mL)

CC[C@H](C)[C@H](NC(=O)[C@@H](NC(=O)[C@@H](N)CCCNC(=N)N)[C@@H](C)CC)C(=O)N[C@@H](CC(=O)O)C(=O)N[C@@H](CC(C)C)C(=O)N[C@@H](CC(C)C)C(=O)N[C@@H](Cc1c[nH]c2ccccc12)C(=O)N[C@@H](CCCNC(=N)N)C(=O)N[C@H](C(=O)N[C@@H](CCCNC(=N)N)C(=O)N[C@@H](CCCNC(=N)N)C(=O)N1CCC[C@H]1C(=O)N[C@@H](CCC(N)=O)C(=O)N[C@@H](Cc1c[nH]c2ccccc12)C(=O)N1CCC[C@H]1C(=O)N[C@@H](CCCCN)C(=O)N[C@@H](Cc1ccccc1)C(=O)N[C@H](C(=O)N[C@H](C(=O)N[C@H](C(=O)N[C@@H](Cc1c[nH]c2ccccc12)C(=O)N[C@H](C(=O)N[C@H](C=O)CCCNC(=N)N)C(C)C)C(C)C)[C@@H](C)O)C(C)C)C(C)C [RIIDLLWRVRRPQWPKFVTVWVR]
MIC [7]: 14.1 µM (≈ 42.5 µg/mL)
MIC [10]: 14.1 µM (≈ 42.5 µg/mL)
MIC [11]: 14.1 µM (≈ 42.5 µg/mL)

CC[C@H](C)[C@H](NC(=O)[C@H](CCCCN)NC(=O)[C@@H](NC(=O)[C@@H](NC(=O)[C@H](CCCN=C(N)N)NC(=O)[C@H](C)NC(=O)[C@H](CC(C)C)NC(=O)[C@@H](N)CCCN=C(N)N)[C@@H](C)CC)C(C)C)C(=O)N[C@@H](CCCN=C(N)N)C(=O)N[C@H](C(=O)N[C@@H](C)C(=O)N[C@@H](CCCN=C(N)N)C(N)=O)C(C)C [RLARIVKIRVAR]
MIC [28]: 21.4 µM (≈ 31 µg/mL)
MIC [29]: 86.2 µM (≈ 125 µg/mL)
MIC [30]: 11 µM (≈ 16 µg/mL)
MIC [31]: 86.2 µM (≈ 125 µg/mL)
MIC [32]: 21.4 µM (≈ 31 µg/mL)
MIC [33]: ≥ 43.4 µM
MIC [34]: 21.4 µM (≈ 31 µg/mL)
